Experimental findings from US8901140B2, “6-amino quinazoline or 3-cyano quinoline derivatives, preparation methods and pharmaceutical uses thereof” (Jiangsu Hengrui Medicine Co., Ltd., priority 2009, dated 2014) are described below.

A short description of series [1]: Pharmacokinetics Assay in rats, intragastric administration, LC/MS/MS. The settings on record: both sexes, rat, plasma, po, SD rats, 25 mg/kg; for Vd/F: read-out: Apparent Distribution Volume Vz/F; for CL/F: read-out: Clearance CL/F (converted); for half-life: read-out: Half-Life t½ (converted); for Cmax: read-out: Plasma Conc. Cmax. The series is classed as in vivo. As to the method:
The pharmacokinetic behavior of the compounds of the present invention was studied and evaluated in rats. 8 healthy adult SD rats, male and female in half, were purchased from SINO-BRITSH SIPPR/BK LAB. ANIMAL LTD., CO, License number: SCXK (Shanghai) 2003-0002 The right amount of compounds were weighted and grinded with 0.5% Sodium Carboxymethyl cellulose uniformly, suspended them with 1% tween 80 to 2.5 mg/mL of suspension before use. […] 8 Healthy adult adult SD rats, male and female in half, were divided into 2 groups. After an overnight fast, the rats were administered intragastrically at a dose of 25.0 mg/kg. […] The plasma samples were stored at −20° C. until analysis. The rats were fed 2 hours after administration. 50 μL of rat plasmas taken at various time points after administration were mixed with 50 μL of standard series solution to obtain plasma concentration of 50.0, 100, 200, 500, 1000, 2000, 5000 ng/mL. 150 μL methanol was added and then the mixture was mixed for 3 minute using a vortexer and centrifuged for 10 minutes at 13,500 rpm. 10 μL of the supernatant was analyzed by LC-MS/MS. The main pharmacokinetic parameters were caculated by DAS 2.0 software.

The subject of series [2] is xenografts of Calu-3 human lung cancer. The series can be described thus: Therapeutic effects against xenografts of Calu-3 human lung cancer in nude mice. The series is classed as in vivo, BALB/cA-nude mice. The note with it: for tolerance of the mice: present administration protocol. As to the method:
BALB/cA-nude mice, 6 to 7 weeks old, ♀, purchased from Slaccas Experimental Animal LTD., CO.
Nude mice were hypodermic inoculated Calu-3 human lung cancer cell. After tumors grew to 150-250 mm^3, mice were randomly divided into teams (d0).
The volume of tumors and the weigh of the mice were measured and recorded for 2-3 times per week.
The calculation formula of the volume of tumor (V) is: V=½×a×b^2, a: length of tumor, b: width of tumor.
(Xenograft models place foreign cells or tissue in a host animal.)

For series [3], the system named is human epidermoid carcinoma A431 cells. The series can be described thus: EGFR Cell Proliferation Inhibition Assay (SRB method, 72 hours). The series is classed as cell-based. The settings on record: A-431. From the text:
The activity is represented by the IC50 value. The general procedures of the assay are given as follows: The cancer cells A431 that highly expressing EGFR (Institute of biochemistry and cell biology) were chosen and seeded to 96-well cell culture plate at a suitable concentration (e.g., 5000 cells/mL medium). […] Then, the cell culture medium was replaced by fresh one with tested compounds added in it at serial concentrations (general 6 to 7 concentrations). Then the cells were put back to the incubator and cultured continuously. 72 hours later, the activity of the tested compounds for inhibiting the cell proliferation was determined by using Sulforhodamine B (SRB) method. IC50 value on tested cells are calculated by the data of inhibition rates of serial concentrations of the tested compounds.

A further series addresses EGFR kinase (Homo sapiens (Human), UniProt P00533). The series can be described thus: EGFR Kinase Activity Assay (Time-Resolved fluorescence). It counts as biochemical. The settings on record: human-derived recombinant EGFR kinase, 20 μM ATP, 25° C., 45 minutes; read-out: IC50 (EGFR/BIO). As to the method:
The in vitro EGFR kinase activity was tested by the following assay.
The following assay may be used to determine the activity of the compounds of the invention for inhibiting EGFR kinase activity. […] EGFR kinase used in this assay is a human-derived recombinant protein (Cell signaling technology, #7908), which was reacted with peptide substrate and different concentrations of tested compounds in a buffer solution containing 60 mM HEPES (pH7.5), 5 mM MgCl2, 5 mM MnCl2, 3 μM Na3VO4, […] (1000×) and 20 μM ATP at 25° C., for 45 minutes. The EGFR kinase activity was determined by using a Time-Resolved fluorescence method.

Where [4] appears, read: high dose (200 mg/kg), Calu-3 xenografts.
[5] abbreviates: low dose (100 mg/kg), Calu-3 xenografts.

The half-life is the time in which the quantity being followed falls by half. In general, MRT refers to the average time that molecules of a dose stay in the body. A word on the Cmax: it is the highest concentration seen after dosing.

Structures are written as SMILES.

Chain of EGFR kinase (P00533 25-1210): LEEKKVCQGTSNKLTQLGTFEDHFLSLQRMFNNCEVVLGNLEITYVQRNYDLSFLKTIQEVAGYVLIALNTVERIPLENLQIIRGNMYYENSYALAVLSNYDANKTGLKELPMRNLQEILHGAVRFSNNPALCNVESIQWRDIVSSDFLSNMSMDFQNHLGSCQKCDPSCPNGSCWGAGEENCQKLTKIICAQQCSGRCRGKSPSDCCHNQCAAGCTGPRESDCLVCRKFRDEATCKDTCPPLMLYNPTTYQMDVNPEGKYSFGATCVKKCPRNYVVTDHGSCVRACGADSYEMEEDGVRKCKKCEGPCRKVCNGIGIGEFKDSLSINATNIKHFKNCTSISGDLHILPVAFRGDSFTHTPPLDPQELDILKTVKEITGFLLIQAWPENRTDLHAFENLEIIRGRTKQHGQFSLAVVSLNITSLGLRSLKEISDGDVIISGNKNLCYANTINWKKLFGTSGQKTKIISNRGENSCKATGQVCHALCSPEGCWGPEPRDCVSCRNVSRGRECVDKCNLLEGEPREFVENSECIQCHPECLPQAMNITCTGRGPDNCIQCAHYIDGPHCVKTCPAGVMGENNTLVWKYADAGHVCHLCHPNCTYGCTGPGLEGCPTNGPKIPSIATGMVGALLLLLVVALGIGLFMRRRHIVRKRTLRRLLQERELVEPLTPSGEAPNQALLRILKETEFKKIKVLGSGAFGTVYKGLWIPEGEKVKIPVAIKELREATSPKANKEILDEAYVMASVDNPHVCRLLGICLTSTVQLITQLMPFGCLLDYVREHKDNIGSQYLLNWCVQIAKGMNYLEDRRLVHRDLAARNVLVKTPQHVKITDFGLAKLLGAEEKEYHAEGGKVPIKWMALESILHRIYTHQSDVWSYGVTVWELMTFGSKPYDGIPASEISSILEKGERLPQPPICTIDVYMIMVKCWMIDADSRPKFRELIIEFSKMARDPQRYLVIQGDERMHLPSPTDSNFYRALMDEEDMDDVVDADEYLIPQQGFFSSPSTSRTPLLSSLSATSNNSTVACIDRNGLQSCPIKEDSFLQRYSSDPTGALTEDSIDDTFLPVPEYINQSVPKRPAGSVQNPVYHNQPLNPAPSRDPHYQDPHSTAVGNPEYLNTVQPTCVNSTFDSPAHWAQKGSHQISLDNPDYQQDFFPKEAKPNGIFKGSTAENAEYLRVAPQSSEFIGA

In the case of `CCOc1cc2ncc(C#N)c(Nc3ccc(OCc4ccccn4)c(Cl)c3)c2cc1NC(=O)/C=C/[C@@H]1CCCN1C` [Example 1, (E)-N-[4-[[3-Chloro-4-(2-pyridylmethoxy)phenyl]amino]-3-cyano-7-ethoxy-6-quinolyl]-3-[(2S)-1-methylpyrrolidin-2-yl]prop-2-enamide], in series [1], the Vd/F amounted to 3.71 ± 1.68 L/kg, the CL/F was 12.7 mL/min/kg, the half-life is 4.04 ± 1.39 h and the Cmax stood at 4480 ± 1880 ng/mL. The MRT in series [1] (read-out: Mean Residence Time MRT) came out at 7.78 ± 1.89 h. In addition, the “inhibition of the growth of Calu-3 human lung cancer (in words)” value in series [2] (Calu-3 xenografts) is “markedly inhibited”. In series [2] (setting [4]), the “completely degraded tumor (fraction of tumors)” value is recorded as 1/6 and the “reduced tumor volume (fraction of tumors)” value is on record as 1/6. Moreover, the “reduced tumor volume (fraction of tumors)” value in series [2] (setting [5]) is given as 2/6. The “tolerance of the mice” value in series [2] is listed as “well tolerant”.

Take `CCOc1cc2ncc(C#N)c(Nc3ccc(OCc4ccccn4)c(Cl)c3)c2cc1NC(=O)/C=C/[C@@H]1CCCN1` [Example 2, (E)-N-[4-[[3-Chloro-4-(2-pyridylmethoxy)phenyl]amino]-3-cyano-7-ethoxy-6-quinolyl]-3-[(2S)-pyrrolidin-2-yl]prop-2-enamide]: the IC50 in series [3] turned out to be 3 nM; at EGFR kinase, 6 nM.

Take `CCOc1cc2ncc(C#N)c(Nc3ccc(OCc4ccccn4)c(Cl)c3)c2cc1NC(=O)/C=C/[C@@H]1C[C@@H](O)CN1C` [Example 3, (E)-N-[4-[[3-Chloro-4-(2-pyridylmethoxy)phenyl]amino]-3-cyano-7-ethoxy-6-quinolyl]-3-[(2S,4R)-4-hydroxy-1-methyl-pyrrolidin-2-yl]prop-2-enamide]: the IC50 stood at 36 nM in series [3] and 59 nM at EGFR kinase.

Take `CCOc1cc2ncc(C#N)c(Nc3ccc(OCc4ccccn4)c(Cl)c3)c2cc1NC(=O)/C=C/[C@H]1CCCN1C` [Example 5, (E)-N-[4-[[3-Chloro-4-(2-pyridylmethoxy)phenyl]amino]-3-cyano-7-ethoxy-6-quinolyl]-3-[(2R)-1-methylpyrrolidin-2-yl]prop-2-enamide]: in series [1], the Vd/F was found to be 2.6 ± 0.94 L/kg, the CL/F is 8.83 mL/min/kg, the half-life was 3.4 ± 0.45 h and the Cmax was found to be 6470 ± 1810 ng/mL. Moreover, the “reduced tumor volume (fraction of tumors)” value in series [2] (setting [4]) is 4/6. For the same molecule, the “reduced tumor volume (fraction of tumors)” value in series [2] (setting [5]) is on record as 3/6. The “tolerance of the mice” value in series [2] is listed as “well tolerant”.

For the molecule `CCOc1cc2ncnc(Nc3ccc(F)c(Cl)c3)c2cc1NC(=O)/C=C/[C@@H]1CCCN1C` [Example 7, (E)-N-[4-[(3-Chloro-4-fluoro-phenyl)amino]-7-ethoxy-quinazolin-6-yl]-3-[(2S)-1-methylpyrrolidin-2-yl]prop-2-enamide], the IC50 at EGFR kinase came out at 4 nM.

In the case of `CCOc1cc2ncnc(Nc3ccc(F)c(Cl)c3)c2cc1NC(=O)/C=C/[C@H]1CCCN1C` [Example 9, (E)-N-[4-[(3-Chloro-4-fluoro-phenyl)amino]-7-ethoxy-quinazolin-6-yl]-3-[(2R)-1-methylpyrrolidin-2-yl]prop-2-enamide], the IC50 in series [3] came out at 8 nM; on EGFR kinase it was 2 nM.
